Experimental data reported in PMC3130785, “Small Compound 6-O-Angeloylplenolin Induces Mitotic Arrest and Exhibits Therapeutic Potentials in Multiple Myeloma” (PLoS ONE, 2011).

Key:
Assay type in all cases: cell-based, human
[1] = system: Mad2 bound Cdc20; experiment: Immunoprecipitation and Western blotting; settings: U266 and MM.1S cells; 24 h
Method: (§1) Cell pellets were lysed in RIPA buffer containing 50 mM Tris pH 8.0, 150 mM NaCl, 0.1% SDS, 0.5% deoxycholate, 1% NP-40, 1 mM DTT, 1 mM NaF, 1 mM sodium vanadate, and protease inhibitors cocktail (Sigma). For immunoprecipitations, cells were lysed on ice for 15 minutes in RIPA buffer. Lysates were centrifuged. The supernatant was incubated with indicated antibodies overnight, after which protein A/G Plus beads (Santa Cruz Biotechnology) were added and incubated for 3 h. The beads were washed 4 times in RIPA buffer. Then the beads were resuspended in 1× sample buffer and boiled for 3 min. Protein extracts were quantitated and loaded on 8% to 12% sodium dodecyl sulfate polyacrylamide gel, electrophoresed, and transferred to a nitrocellulose membrane (Whatman). The membrane was incubated with primary antibody, washed, and incubated with horseradish peroxidase (HRP)–conjugated secondary antibody (Pierce). Detection was performed by using a chemiluminescent western detection kit (Cell Signaling). […]
(§2) Figure 3 6-OAP accumulates cyclin B1 which is required for mitotic arrest. […] After co-incubation with 6-OAP for 18 h, the cells were then harvested and detected by Leica DMI 400B microscope (D), or analyzed by flow cytometry for the cell cycle distribution (E). To evaluate cell growth, the cells were treated with 6-OAP for indicated time points and analyzed by trypan blue exclusion assay (F). […]

[2] = system: ubiquitinated cyclin B1 (Ub-cyclin B1); experiment: Immunoprecipitation and Western blotting; settings: U266 and MM.1S; 24 h
Method: as §1, §2

[3] = system: pERK1/2; experiment: Western blotting, 6-OAP/BOR; settings: MM.1S; 6-OAP 5 µM for 6 h
Method: as §1

For `CC=C(C)C(=O)OC1C2C(CC(C)C3C=CC(=O)C31C)OC(=O)C2C` (stereo not drawn) [6-OAP, 6-O-angeloylplenolin], the Mad2-Cdc20 binding [1] was “enhanced the binding affinity”, the “ubiquitinated cyclin B1” value [2] was “markedly decreased” and the “phosphorylated ERK1/2” value [3] was “induced an increase in phosphorylated ERK1/2”.
